The values that follow come from US20240109865A1, “INDAZOLE COMPOUNDS AS KINASE INHIBITORS” (TYRA BIOSCIENCES, INC., priority 2020, published 2024).

Test [1] has as its system KG-1 cells (FGFR1-fusion). Put plainly: KG-1 cancer cell line cell viability assay (CellTiter-Glo 2.0). It is filed as cell-based. To be noted: Homo sapiens, 72 hours, Cell Titer Glo 2.0. The essentials:
(§1)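 RT112/84, UM-UC-14 and KG-1 cells (10,000/well, RPMI1640 with 10% FBS) were treated with a 9-dose, 10-fold series starting at 30 μM, in triplicate, for 72 h at 37 °C. ATP was read by CellTiter-Glo 2.0 luminescence relative to DMSO controls, and IC50 was fitted with a 4-parameter sigmoidal model.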
A general note: In ATP-based viability assays light output follows the ATP content of the culture.

Test [2] relates to RT112/84 cells (FGFR3-fusion). Description: RT112/84 cancer cell line cell viability assay (CellTiter-Glo 2.0). It counts as cell-based. The settings on record: Homo sapiens, 72 hours, Cell Titer Glo 2.0. A digest of the protocol: as §1
Test [3] relates to UM-UC-14 cells (FGFR3(S249C)). Put plainly: UM-UC-14 cancer cell line cell viability assay (CellTiter-Glo 2.0). It counts as cell-based. The settings on record: UMUC14, 72 hours, Cell Titer Glo 2.0. From the text: Experimental Purpose: To detect the change of intracellular ATP by Cell Titer-Glo® and to evaluate the inhibitory effect of the compounds on cancer cell lines by determining the in vitro IC50 value of the compounds.
Cell Titer-Glo® 2.0 Luminescent cell viability assay reagent was purchased from Promega (Madison, WI). RT112/84 and KG-1 cell lines were purchased from American Type Culture Collection (Manassas, VA). UM-UC-14 cell line was purchased from Sigma (St. Louis, MO). RT112/84, UM-UC-14, and KG-1 cells were cultured in RPMI1640 media supplemented with 10% fetal bovine serum. Cultures were maintained at 37° C. in a humidified atmosphere of 5% C02 and 95% air.
Cell Viability Assay Procedure: Cells were plated in 96-well clear bottom/white plates (Corning #3903) at 10,000 cells/well in 100 μl of media, incubated overnight. The next day, test compound DMSO stock solutions were made at 10 mM and 2 μM final concentration. Compounds were then added to cells in a 9-dose, 10-fold dilution series starting at 30 μM with an HP 300e Digital Dispenser (each dose was applied in triplicate). DMSO was backfilled to each well up to 301 nL total volume of test compound+DMSO, and a total of 301 nL DMSO was added to a control/no test compound well in triplicate. The cells in cell culture plates were incubated with the compounds at 37° C. and 5% C02 for 72 hours. Then 50 μl of Cell Titer Glo 2.0 reagent was added to each well of the cell culture plates. The contents were covered from light and mixed on an orbital shaker at room temperature for 10 min. Luminescence was recorded by a Synergy H1 Microplate Reader (Biotek, Winooski, VT). Cells were assessed as a percentage of DMSO only treated control cells. Curves were plotted and IC50 values were calculated using the GraphPad Prism 8 program based on a sigmoidal dose-response equation (4 parameter).

The next test has as its target FGFR1-BCR Ba/F3 cells (Homo sapiens, UniProt P11362). Put plainly: Ba/F3 cell viability assay (CellTiter-Glo 2.0), FGFR1-BCR Ba/F3. It is filed as cell-based. The essentials:
(§2)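 IL3-independent Ba/F3 lines driven by FGFR1-BCR or FGFR3-BAIAP2L1 fusions, in RPMI1640/10% FBS. 9-dose 10-fold series from 30 μM, triplicate, 48 h at 37 °C; viability by CellTiter-Glo 2.0 ATP luminescence relative to DMSO control, IC50 from 4-parameter sigmoidal fit.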

In another test the target is FGFR3 (Homo sapiens (Human), UniProt P22607). Description: Kinase assay, binding constants (Kd), kinase-tagged T7 phage, qPCR. A digest of the protocol:
(§3)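 Competition binding: T7 phage-tagged kinase + biotin-ligand beads + compound (11 pts, 3-fold, 0.9% DMSO). Elution 30 min RT with free ligand; qPCR quantitation. Kd via Hill fit, slope −1.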
Background: Quantitative PCR measures a nucleic acid by following its amplification.

Another test addresses FGFR1 (Homo sapiens (Human), UniProt P11362). Described as above. The essentials:
as §3

A further test deals with FGFR4 (Homo sapiens (Human), UniProt P22455). Described as above. The essentials: as §3
The target of a further test is FGFR3 (V555M) (Homo sapiens (Human), UniProt P22607, V555M). The description is as above. To be noted: V555M mutant. A digest of the protocol:
as §3

A further test has as its target FGFR2 (Homo sapiens (Human), UniProt P21802). Described as above. A digest of the protocol: as §3
The target of test [4] is FGFR3-BAIAP2L1 Ba/F3 cells (Homo sapiens, UniProt P22607). Put plainly: Ba/F3 cell viability assay (CellTiter-Glo 2.0), FGFR3-BAIAP2L1 Ba/F3. It counts as cell-based. A digest of the protocol:
as §2

[5] abbreviates: FGFR3 > FGFR1 selectivity ratio in Ba/F3 FGFR fusion cell based assays.
The mark [6] stands for this setting: read-out: Ba/F3 Cells FGFR1 (IC50 nM), 48 hours, Cell Titer Glo 2.0.
The mark [7] stands for this setting: read-out: Ba/F3 Cells FGFR3 (IC50 nM); FGFR3-BAIAP2L1 Ba/F3 cells, 48 hours, Cell Titer Glo 2.0.

Each structure is given as a SMILES string. Like-named read-outs stand apart in the source and are kept apart here.

Sequence of FGFR1-BCR Ba/F3 cells (P11362 22-822 limits assumed, change not shown): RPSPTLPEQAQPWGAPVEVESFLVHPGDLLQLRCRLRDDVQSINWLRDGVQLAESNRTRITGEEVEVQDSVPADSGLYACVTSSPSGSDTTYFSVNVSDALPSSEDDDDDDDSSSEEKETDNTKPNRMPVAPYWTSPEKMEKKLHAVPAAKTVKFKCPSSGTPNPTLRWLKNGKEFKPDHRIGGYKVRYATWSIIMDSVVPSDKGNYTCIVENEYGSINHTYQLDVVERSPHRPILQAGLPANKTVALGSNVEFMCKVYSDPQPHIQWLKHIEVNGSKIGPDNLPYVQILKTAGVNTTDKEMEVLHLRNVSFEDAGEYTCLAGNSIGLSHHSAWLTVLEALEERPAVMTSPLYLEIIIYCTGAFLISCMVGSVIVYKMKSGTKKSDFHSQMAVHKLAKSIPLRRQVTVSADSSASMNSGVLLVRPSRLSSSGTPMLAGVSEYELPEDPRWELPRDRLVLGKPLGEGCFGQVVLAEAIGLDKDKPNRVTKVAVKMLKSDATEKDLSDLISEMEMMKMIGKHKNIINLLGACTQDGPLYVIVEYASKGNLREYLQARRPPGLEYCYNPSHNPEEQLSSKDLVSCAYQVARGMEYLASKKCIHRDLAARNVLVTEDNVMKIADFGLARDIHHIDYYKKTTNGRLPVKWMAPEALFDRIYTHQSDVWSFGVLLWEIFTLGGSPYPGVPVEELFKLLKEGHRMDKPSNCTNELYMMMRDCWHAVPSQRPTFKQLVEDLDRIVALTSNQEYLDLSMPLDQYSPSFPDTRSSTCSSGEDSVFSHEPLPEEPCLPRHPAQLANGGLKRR
Sequence of FGFR1 (P11362 22-822): as the sequence (P11362 22-822 limits assumed, change not shown) above
Sequence of FGFR4 (P22455 22-802): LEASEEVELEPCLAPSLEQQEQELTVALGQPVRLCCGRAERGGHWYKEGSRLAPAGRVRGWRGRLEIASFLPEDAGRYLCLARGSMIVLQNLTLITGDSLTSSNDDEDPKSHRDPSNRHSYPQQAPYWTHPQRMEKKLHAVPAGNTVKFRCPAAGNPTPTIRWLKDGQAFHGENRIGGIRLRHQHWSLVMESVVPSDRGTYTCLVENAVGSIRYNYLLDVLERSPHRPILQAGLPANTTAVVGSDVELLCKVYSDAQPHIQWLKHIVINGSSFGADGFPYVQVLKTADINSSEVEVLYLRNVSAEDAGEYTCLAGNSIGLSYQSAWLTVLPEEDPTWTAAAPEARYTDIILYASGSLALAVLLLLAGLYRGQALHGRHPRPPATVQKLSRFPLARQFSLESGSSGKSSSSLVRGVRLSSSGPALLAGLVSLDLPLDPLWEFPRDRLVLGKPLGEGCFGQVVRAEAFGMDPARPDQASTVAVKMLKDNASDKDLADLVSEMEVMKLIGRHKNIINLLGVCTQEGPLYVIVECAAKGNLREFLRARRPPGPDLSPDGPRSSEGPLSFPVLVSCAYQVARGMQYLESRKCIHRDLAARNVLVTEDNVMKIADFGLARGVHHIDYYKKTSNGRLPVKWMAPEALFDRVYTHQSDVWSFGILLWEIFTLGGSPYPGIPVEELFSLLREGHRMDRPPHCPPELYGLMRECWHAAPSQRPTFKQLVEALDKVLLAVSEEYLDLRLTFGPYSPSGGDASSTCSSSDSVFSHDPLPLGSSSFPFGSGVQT
Sequence of FGFR3-BAIAP2L1 Ba/F3 cells (P22607 23-806 limits assumed, change not shown): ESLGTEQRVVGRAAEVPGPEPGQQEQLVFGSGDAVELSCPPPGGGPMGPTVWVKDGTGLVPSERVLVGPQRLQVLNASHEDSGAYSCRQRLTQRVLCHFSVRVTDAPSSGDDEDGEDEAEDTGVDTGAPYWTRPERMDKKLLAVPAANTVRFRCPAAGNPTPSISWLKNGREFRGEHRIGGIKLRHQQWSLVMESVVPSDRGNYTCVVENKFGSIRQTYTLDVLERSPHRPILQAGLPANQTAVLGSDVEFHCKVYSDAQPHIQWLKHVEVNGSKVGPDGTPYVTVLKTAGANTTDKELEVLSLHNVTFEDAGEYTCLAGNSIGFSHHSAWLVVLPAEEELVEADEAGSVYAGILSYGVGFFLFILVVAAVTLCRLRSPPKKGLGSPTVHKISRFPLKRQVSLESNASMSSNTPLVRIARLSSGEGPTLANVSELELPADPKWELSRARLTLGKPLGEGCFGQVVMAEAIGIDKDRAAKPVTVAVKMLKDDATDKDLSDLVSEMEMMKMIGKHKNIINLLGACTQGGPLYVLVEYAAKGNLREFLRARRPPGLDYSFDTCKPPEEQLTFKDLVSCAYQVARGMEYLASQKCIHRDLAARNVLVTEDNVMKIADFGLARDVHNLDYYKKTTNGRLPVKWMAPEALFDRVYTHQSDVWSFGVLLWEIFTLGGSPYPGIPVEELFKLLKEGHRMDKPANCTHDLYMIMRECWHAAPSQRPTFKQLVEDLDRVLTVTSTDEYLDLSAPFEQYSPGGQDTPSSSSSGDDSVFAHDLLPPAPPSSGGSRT
Sequence of FGFR3 (P22607 23-806): as the sequence (P22607 23-806 limits assumed, change not shown) above
Sequence of FGFR3 (V555M) (P22607 23-806 V555M): as the sequence (P22607 23-806 limits assumed, change not shown) above, with V533M counted along it
Sequence of FGFR2 (P21802 22-821): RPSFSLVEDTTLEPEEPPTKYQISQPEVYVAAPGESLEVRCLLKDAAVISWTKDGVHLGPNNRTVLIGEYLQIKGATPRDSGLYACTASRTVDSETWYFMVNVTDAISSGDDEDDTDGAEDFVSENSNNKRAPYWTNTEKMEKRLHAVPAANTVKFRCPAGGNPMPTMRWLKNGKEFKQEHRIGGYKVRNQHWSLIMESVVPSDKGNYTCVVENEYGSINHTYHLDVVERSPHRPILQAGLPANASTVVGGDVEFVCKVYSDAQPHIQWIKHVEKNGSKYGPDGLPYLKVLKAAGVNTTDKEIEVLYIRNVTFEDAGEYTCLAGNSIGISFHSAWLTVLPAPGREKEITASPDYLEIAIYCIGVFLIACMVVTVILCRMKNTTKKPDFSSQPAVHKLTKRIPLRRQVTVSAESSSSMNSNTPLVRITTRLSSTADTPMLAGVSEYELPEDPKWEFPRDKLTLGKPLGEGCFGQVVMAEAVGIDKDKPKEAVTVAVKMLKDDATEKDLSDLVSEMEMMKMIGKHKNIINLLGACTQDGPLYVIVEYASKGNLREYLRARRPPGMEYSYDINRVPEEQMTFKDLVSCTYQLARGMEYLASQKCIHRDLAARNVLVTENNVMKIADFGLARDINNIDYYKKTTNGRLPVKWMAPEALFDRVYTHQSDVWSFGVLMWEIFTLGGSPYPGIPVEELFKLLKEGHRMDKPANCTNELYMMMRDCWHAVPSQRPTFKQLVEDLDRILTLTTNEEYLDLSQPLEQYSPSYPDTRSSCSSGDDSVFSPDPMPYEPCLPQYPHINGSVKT

Usually Kd stands for a measure of binding affinity in units of concentration. Turning to `C[C@@H](Oc1ccc2[nH]nc(-c3ccc(N4CC5CC(C4)N5S(C)(=O)=O)nc3)c2c1)c1c(Cl)cncc1Cl` [Example 20, 5-[(1R)-1-(3,5-dichloro-4-pyridyl)ethoxy]-3-[6-(6-methylsulfonyl-3,6-diazabicyclo[3.1.1]heptan-3-yl)-3-pyridyl]-1H-indazole], the IC50 was 100 to 300 nM in [1]; 20 to 100 nM in test [2]; 20 to 100 nM in [3]; > 300 nM on FGFR1-BCR Ba/F3 cells (48 hours, Cell Titer Glo 2.0, read-out: Ba/F3 Cells FGFR1 (IC50 nM)); 20 to 100 nM in test [4] (FGFR3-BAIAP2L1 Ba/F3 cells, 48 hours, Cell Titer Glo 2.0; read-out: Ba/F3 Cells FGFR3 (IC50 nM)). Further, the Kd on FGFR3 was 1 to 20 nM; at FGFR1, 20 to 100 nM; on FGFR4 it was 1 to 20 nM; on FGFR3 (V555M), 1 to 20 nM; at FGFR2, 20 to 100 nM. Besides, in test [4] (setting [5]), the “Ba/F3 FGFR1/FGFR3 Selectivity” value came out at 15.

For `C[C@@H](Oc1ccc2[nH]nc(-c3ccc(N4CCNC5(CC5)C4)nc3)c2c1)c1c(Cl)cncc1Cl` [Example 21, 3-[6-(4,7-diazaspiro[2.5]octan-7-yl)-3-pyridyl]-5-[(1R)-1-(3,5-dichloro-4-pyridyl)ethoxy]-1H-indazole], the IC50 was in the range of 20 to 100 nM in test [1]; 1 to 20 nM in [2]; 1 to 20 nM in [3]; 100 to 300 nM on FGFR1-BCR Ba/F3 cells (setting [6]); 1 to 20 nM in [4] (setting [7]). In addition, the Kd at FGFR3, at FGFR1, at FGFR4, on FGFR3 (V555M) and at FGFR2 was 1 to 20 nM throughout. In addition, the “Ba/F3 FGFR1/FGFR3 Selectivity” value in test [4] (setting [5]) came to 13.

`C[C@@H](Oc1ccc2[nH]nc(-c3ccc(N4CCN(S(C)(=O)=O)C5(CC5)C4)nc3)c2c1)c1c(Cl)cncc1Cl` [Example 22, 5-[(1R)-1-(3,5-dichloro-4-pyridyl)ethoxy]-3-[6-(4-methylsulfonyl-4,7-diazaspiro[2.5]octan-7-yl)-3-pyridyl]-1H-indazole]: the IC50 in test [1] lay in the range of 20 to 100 nM; in test [2], 1 to 20 nM; in [3], 1 to 20 nM; on FGFR1-BCR Ba/F3 cells (setting [6]) it was 100 to 300 nM; in test [4] (setting [7]), 1 to 20 nM. Besides, the Kd on FGFR3 was 1 to 20 nM; on FGFR1, 20 to 100 nM; at FGFR4, 1 to 20 nM; on FGFR3 (V555M), 1 to 20 nM; at FGFR2, 20 to 100 nM. The “Ba/F3 FGFR1/FGFR3 Selectivity” value in test [4] (setting [5]) is recorded as 11.

Turning to `C[C@@H](Oc1ccc2[nH]nc(-c3ccc(N4CCN(C(=O)N(C)C)C5(CC5)C4)nc3)c2c1)c1c(Cl)cncc1Cl` [Example 23, (R)-7-(5-(5-(1-(3,5-dichloropyridin-4-yl)ethoxy)-1H-indazol-3-yl)pyridin-2-yl)-N,N-dimethyl-4,7-diazaspiro[2.5]octane-4-carboxamide], the IC50 was in the range of 100 to 300 nM in test [1]; 1 to 20 nM in test [2]; 1 to 20 nM in test [3]; 100 to 300 nM at FGFR1-BCR Ba/F3 cells (setting [6]); 1 to 20 nM in [4] (setting [7]). The Kd is 100 to 300 nM at FGFR3; > 300 nM at FGFR1; > 300 nM at FGFR4; 20 to 100 nM at FGFR3 (V555M); > 300 nM on FGFR2. The “Ba/F3 FGFR1/FGFR3 Selectivity” value in test [4] (setting [5]) is listed as 16.

Take `C[C@@H](Oc1ccc2[nH]nc(-c3ccc(N4CCN(C(N)=O)C5(CC5)C4)nc3)c2c1)c1c(Cl)cncc1Cl` [Example 24, 7-[5-[5-[(1R)-1-(3,5-dichloro-4-pyridyl)ethoxy]-1H-indazol-3-yl]-2-pyridyl]-4,7-diazaspiro[2.5]octane-4-carboxamide]: the IC50 in test [1] is 20 to 100 nM; in [2], 1 to 20 nM; in test [3] it was 1 to 20 nM; at FGFR1-BCR Ba/F3 cells (setting [6]), 20 to 100 nM; in test [4] (setting [7]), 1 to 20 nM. The equilibrium dissociation constant (Kd) at FGFR3, at FGFR1, at FGFR4, at FGFR3 (V555M) and on FGFR2 was 1 to 20 nM throughout. Also, the “Ba/F3 FGFR1/FGFR3 Selectivity” value in [4] (setting [5]) is listed as 18.
